Experimental data published in article PMC4143601 (Cancer Chemotherapy and Pharmacology, 2014).
Entries after “also recorded” stand apart in the source; their conditions may differ. Read-outs that look alike come from different tables or passages of the source.

Columns and labels:
advanced solid tumors = test: Tumor response, best overall response (RECIST version 1.0); format: in vivo, human (Japanese patients)
Protocol: (§1) The starting dose was 8 mg/m^2, and treatment cycles were 28 days. Intra-patient dose escalation was not permitted. An adaptive Bayesian logistic regression model (BLRM), guided by the escalation with overdose control (EWOC) principle, was used to guide dose escalations. The EWOC principle mandates the potential doses recommended for the next cohort and the estimated MTD have less than 25 % posterior probability of DLT in the excessive toxicity interval (33, 100 %). […] The occurrence of DLTs was evaluated during Cycle 1. A minimum of three patients were enrolled in a cohort, and the estimated MTD was continuously updated using the BLRM, and a minimum of six patients were planned to be enrolled at the MTD level. […] A minimum of 15 patients were required for the BLRM model to determine the MTD. […] Doses were individually adjusted according to body surface area measured at baseline.
(§2) Toxicity was graded according to the National Cancer Institute Common Toxicity Criteria version 3.0. […] Tumor response was assessed by computed tomography or magnetic resonance imaging, and using Response Evaluation Criteria in Solid Tumors version 1.0 for efficacy evaluations.

[1] = Protocol: Inclusion criteria included Eastern Cooperative Oncology Group performance status ≤2 and life expectancy ≥12 weeks.
as §1, §2
The DDS was used for the BLRM analyses in the determination of MTD.

[2] = Pharmacokinetics of AUY922 and its glucuronide metabolite BJP762 in blood (LC-MS/MS, non-compartmental); format: in vivo, human (Japanese patients with advanced solid tumors); conditions: for half-life / Tmax / AUC(0-inf) / AUC(0-t) / Cmax / clearance / Vd: human; for half-life / Tmax: blood; for Tmax: read-out: T max [median (range)]; for AUC(0-inf) / AUC(0-t) / Cmax / clearance / Vd: whole blood; for Vd: read-out: Vz
Protocol: Intra-patient dose escalation was not permitted. […] The occurrence of DLTs was evaluated during Cycle 1.

CCNC(=O)c1noc(-c2cc(C(C)C)c(O)cc2O)c1-c1ccc(CN2CCOCC2)cc1 [AUY922, 5-[2,4-dihydroxy-5-isopropyl-phenyl]-N-ethyl-4-[4-(morpholinomethyl)phenyl]isoxazole-3-carboxamide]
Best overall response: Complete response (advanced solid tumors; 8 mg/m^2 (n = 3)): 0 n
Best overall response: Partial response (advanced solid tumors; 8 mg/m^2 (n = 3)): 0 n
Best overall response: Progressive disease (advanced solid tumors; 8 mg/m^2 (n = 3)): 2 n
Best overall response: Stable disease (advanced solid tumors; 8 mg/m^2 (n = 3)): 1 n
Best overall response: Unknown (advanced solid tumors; 8 mg/m^2 (n = 3)): 0 n
Disease control rate (CR + PR + SD) (advanced solid tumors; 8 mg/m^2 (n = 3)): 1 n
Overall response rate (CR + PR) (advanced solid tumors; 8 mg/m^2 (n = 3)): 0 n
Best overall response: Complete response (advanced solid tumors; 16 mg/m^2 (n = 3)): 0 n
Best overall response: Partial response (advanced solid tumors; 16 mg/m^2 (n = 3)): 0 n
Best overall response: Progressive disease (advanced solid tumors; 16 mg/m^2 (n = 3)): 2 n
Best overall response: Stable disease (advanced solid tumors; 16 mg/m^2 (n = 3)): 1 n
Best overall response: Unknown (advanced solid tumors; 16 mg/m^2 (n = 3)): 0 n
Disease control rate (CR + PR + SD) (advanced solid tumors; 16 mg/m^2 (n = 3)): 1 n
Overall response rate (CR + PR) (advanced solid tumors; 16 mg/m^2 (n = 3)): 0 n
Best overall response: Complete response (advanced solid tumors; 22 mg/m^2 (n = 3)): 0 n
Best overall response: Partial response (advanced solid tumors; 22 mg/m^2 (n = 3)): 0 n
Best overall response: Progressive disease (advanced solid tumors; 22 mg/m^2 (n = 3)): 3 n
Best overall response: Stable disease (advanced solid tumors; 22 mg/m^2 (n = 3)): 0 n
Best overall response: Unknown (advanced solid tumors; 22 mg/m^2 (n = 3)): 0 n
Disease control rate (CR + PR + SD) (advanced solid tumors; 22 mg/m^2 (n = 3)): 0 n
Overall response rate (CR + PR) (advanced solid tumors; 22 mg/m^2 (n = 3)): 0 n
Best overall response: Complete response (advanced solid tumors; 28 mg/m^2 (n = 5)): 0 n
Best overall response: Partial response (advanced solid tumors; 28 mg/m^2 (n = 5)): 0 n
Best overall response: Progressive disease (advanced solid tumors; 28 mg/m^2 (n = 5)): 4 n
Best overall response: Stable disease (advanced solid tumors; 28 mg/m^2 (n = 5)): 1 n
Best overall response: Unknown (advanced solid tumors; 28 mg/m^2 (n = 5)): 0 n
Disease control rate (CR + PR + SD) (advanced solid tumors; 28 mg/m^2 (n = 5)): 1 n
Overall response rate (CR + PR) (advanced solid tumors; 28 mg/m^2 (n = 5)): 0 n
Best overall response: Complete response (advanced solid tumors; 40 mg/m^2 (n = 3)): 0 n
Best overall response: Partial response (advanced solid tumors; 40 mg/m^2 (n = 3)): 0 n
Best overall response: Progressive disease (advanced solid tumors; 40 mg/m^2 (n = 3)): 2 n
Best overall response: Stable disease (advanced solid tumors; 40 mg/m^2 (n = 3)): 1 n
Best overall response: Unknown (advanced solid tumors; 40 mg/m^2 (n = 3)): 0 n
Disease control rate (CR + PR + SD) (advanced solid tumors; 40 mg/m^2 (n = 3)): 1 n
Overall response rate (CR + PR) (advanced solid tumors; 40 mg/m^2 (n = 3)): 0 n
Best overall response: Complete response (advanced solid tumors; 54 mg/m^2 (n = 6)): 0 n
Best overall response: Partial response (advanced solid tumors; 54 mg/m^2 (n = 6)): 1 n
Best overall response: Progressive disease (advanced solid tumors; 54 mg/m^2 (n = 6)): 3 n
Best overall response: Stable disease (advanced solid tumors; 54 mg/m^2 (n = 6)): 1 n
Best overall response: Unknown (advanced solid tumors; 54 mg/m^2 (n = 6)): 1 n
Disease control rate (CR + PR + SD) (advanced solid tumors; 54 mg/m^2 (n = 6)): 2 n
Overall response rate (CR + PR) (advanced solid tumors; 54 mg/m^2 (n = 6)): 1 n
Best overall response: Complete response (advanced solid tumors; 70 mg/m^2 (n = 8)): 0 n
Best overall response: Partial response (advanced solid tumors; 70 mg/m^2 (n = 8)): 0 n
Best overall response: Progressive disease (advanced solid tumors; 70 mg/m^2 (n = 8)): 3 n
Best overall response: Stable disease (advanced solid tumors; 70 mg/m^2 (n = 8)): 5 n
Best overall response: Unknown (advanced solid tumors; 70 mg/m^2 (n = 8)): 0 n
Disease control rate (CR + PR + SD) (advanced solid tumors; 70 mg/m^2 (n = 8)): 5 n
Overall response rate (CR + PR) (advanced solid tumors; 70 mg/m^2 (n = 8)): 0 n
Patients with best overall response of stable disease (advanced solid tumors; 70-mg/m^2 cohort, five out of the eight patients): 63%
Best overall response: Complete response (advanced solid tumors; Total, all doses (N = 31)): 0 n (%)
Best overall response: Partial response (advanced solid tumors; Total, all doses (N = 31)): 1 (3) n (%)
Best overall response: Progressive disease (advanced solid tumors; Total, all doses (N = 31)): 19 (61) n (%)
Best overall response: Stable disease (advanced solid tumors; Total, all doses (N = 31)): 10 (32) n (%)
Best overall response: Unknown (advanced solid tumors; Total, all doses (N = 31)): 1 (3) n (%)
Disease control rate (CR + PR + SD) (advanced solid tumors; Total, all doses (N = 31)): 11 (36) n (%)
Overall response rate (CR + PR) (advanced solid tumors; Total, all doses (N = 31)): 1 (3) n (%)
Disease control rate (DCR; PR + SD) (advanced solid tumors; across all dose levels): 36%
Complete response (advanced solid tumors; all doses): no patients achieved a complete response
Patients with confirmed partial response (advanced solid tumors; all doses (N = 31), one patient): 3%
Patients with best overall response of stable disease (advanced solid tumors; all doses (N = 31), ten patients, SD lasting ≥8 weeks): 32%
Duration of confirmed partial response (advanced solid tumors; one patient, rectal carcinoid tumor with lung metastatic lesions, 54 mg/m^2): > 7 months
Maximum tolerated dose (MTD) ([1]; IV once-weekly, 8–70 mg/m^2 tested): No MTD was determined; also recorded: the MTD was not determined; also recorded: The MTD was not established
Diarrhea, AE regardless of relationship to study drug ([1]; human, in vivo): 65%
Fatigue, AE regardless of relationship to study drug ([1]; human, in vivo): 29%
Nausea, AE regardless of relationship to study drug ([1]; human, in vivo): 29%
Night blindness, AE regardless of relationship to study drug ([1]; human, in vivo): 42%
Patients with AEs requiring dose modification or interruption ([1]; human, in vivo): 48%
Patients with serious AEs (SAEs) ([1]; human, in vivo): 26%
Patients who experienced DLTs ([1]; human, in vivo, 28 days): 3.6%
Recommended Phase II dose (RP2D) ([1]; human, in vivo, iv): 70 mg/m^2
Patients discontinued as a result of AEs related to study drug ([1]; in vivo): two patients
Patients with SAEs considered to be related to the study drug ([1]; in vivo): two patients
Dose proportionality of C max in blood ([2]; entire dose range 8–70 mg/m^2): generally increased in a dose-proportional manner; also recorded: increased generally in a dose-proportional manner
half-life ([2]; intravenous, 8 mg/m2): 64 h
half-life ([2]; iv, 28 mg/m2): 98.7 ± 23 h
Tmax ([2]; iv, 28 mg/m2): 0.5 h
half-life ([2]; iv, 40 mg/m2): 123 ± 40.8 h
Tmax ([2]; iv, 40 mg/m2): 1.05 h
half-life ([2]; iv, 54 mg/m2): 120 ± 28.5 h
Tmax ([2]; iv, 54 mg/m2): 0.76 h
half-life ([2]; iv, 70 mg/m2): 127 ± 18.8 h
Tmax ([2]; iv, 70 mg/m2): 1.02 h
AUC(0-inf) ([2]; iv, 28 mg/m2): 9550 ng·h/mL
AUC(0-t) ([2]; iv, 28 mg/m2): 6810 ng·h/mL
Cmax ([2]; iv, 28 mg/m2): 457 ± 101 ng/mL
clearance ([2]; iv, 28 mg/m2): 79.8 mL/min
Vd ([2]; iv, 28 mg/m2): 646 ± 111 L
AUC(0-inf) ([2]; iv, 40 mg/m2): 11400 ng·h/mL
AUC(0-t) ([2]; iv, 40 mg/m2): 6960 ng·h/mL
Cmax ([2]; iv, 40 mg/m2): 710 ± 42 ng/mL
clearance ([2]; iv, 40 mg/m2): 95.7 mL/min
Vd ([2]; iv, 40 mg/m2): 980 ± 132 L
AUC(0-inf) ([2]; iv, 54 mg/m2): 12300 ng·h/mL
AUC(0-t) ([2]; iv, 54 mg/m2): 8880 ng·h/mL
Cmax ([2]; iv, 54 mg/m2): 1050 ng/mL
clearance ([2]; iv, 54 mg/m2): 121 mL/min
Vd ([2]; iv, 54 mg/m2): 1190 L
AUC(0-inf) ([2]; iv, 70 mg/m2): 12600 ng·h/mL
AUC(0-t) ([2]; iv, 70 mg/m2): 8540 ng·h/mL
Cmax ([2]; iv, 70 mg/m2): 1100 ng/mL
clearance ([2]; iv, 70 mg/m2): 143 mL/min
Vd ([2]; iv, 70 mg/m2): 1570 L
Dose dependence of AUClast in blood ([2]; increased with dose from 8 to 28 mg/m^2): saturated at higher dose levels; also recorded: saturated at higher doses
